Test results taken from the supplement of paper PMC5844555.

Tests used:
Assay in all cases: 3' UTR reporter interaction score (median-centred robust z-score of log2 firefly/Renilla activity); higher = less repression of the 3' UTR reporter
Settings in all cases: HEK293T; 48 h
[1] = tested on: BRCA2
Method in brief: (§1)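 For the interaction score, the firefly/Renilla ratio was log-transformed, expressed as a robust z-score per plate using median and median absolute deviation, and median-centred per miRNA; a more negative score indicates interaction. These scores come from at least two independent screens, averaged. Each screen used HEK293T cells at 10,000/well in 96-well plates, co-transfected with DharmaFECT Duo carrying 100 ng luc2P 3' UTR reporter, 20 ng pRL-TK and 2.5 pmol miRNA mimic, with luciferase read at 48 h.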

[2] = tested on: EZH2
Method in brief: as §1

[3] = tested on: FBXW7
Method in brief: as §1

[4] = tested on: HRAS
Method in brief: as §1

[5] = tested on: MYB
Method in brief: as §1

[6] = tested on: MYCN
Method in brief: as §1

[7] = tested on: MYC
Method in brief: as §1

[8] = tested on: MYT1L
Method in brief: as §1

[9] = tested on: NOTCH1
Method in brief: as §1

[10] = tested on: PHF6
Method in brief: as §1

[11] = tested on: PHOX2B
Method in brief: as §1

[12] = tested on: RB1
Method in brief: as §1

[13] = tested on: TP53
Method in brief: as §1

[14] = tested on: ZEB2
Method in brief: as §1

| Sequence | 3' UTR reporter interaction score [1] | 3' UTR reporter interaction score [2] | 3' UTR reporter interaction score [3] | 3' UTR reporter interaction score [4] | 3' UTR reporter interaction score [5] | 3' UTR reporter interaction score [6] | 3' UTR reporter interaction score [7] | 3' UTR reporter interaction score [8] | 3' UTR reporter interaction score [9] | 3' UTR reporter interaction score [10] | 3' UTR reporter interaction score [11] | 3' UTR reporter interaction score [12] | 3' UTR reporter interaction score [13] | 3' UTR reporter interaction score [14] |
| --- | --- | --- | --- | --- | --- | --- | --- | --- | --- | --- | --- | --- | --- | --- |
| UGAGAACUGAAUUCCAUAGGCU | -1.45 | 0.351 | -1.39 | -0.193 | 0.897 | 0.165 | 0.179 | 0.753 | -0.287 | 0.668 | -0.835 | -0.182 | -0.401 | 0.486 |
| UGAGUUGGCCAUCUGAGUGAG | -0.135 | 0.24 | -0.251 | -0.0567 | 0.927 | -3.35 | -0.317 | 2.61 | 1.03 | 2.42 | -3.59 | 0.000132 | -0.988 | 0.14 |
| CCCAGUGUUCAGACUACCUGUUC | 0.218 | -0.25 | -0.85 | -0.0015 | 1.64 | 0.198 | 0.666 | 2.99 | 0.374 | 0.112 | -0.196 | -1.81 | -0.337 | -0.517 |
| UCCCUGUCCUCCAGGAGCUCA | -0.604 | 0.643 | 0.105 | 0.998 | 0.312 | 0.194 | 0.568 | -0.918 | -0.622 | -1.54 | -1.29 | -0.85 | 0.159 | -0.151 |
| UCAGUGCACUACAGAACUUUGU | -1.23 | -0.364 | 0.473 | -0.763 | -1.33 | 0.963 | 0.0974 | 1.34 | 0.169 | 0.792 | -0.0276 | 1.18 | -0.523 | 1.75 |
| CUGGAUGGCUCCUCCAUGUCU | -1.72 | -1.36 | 0.945 | -0.334 | 0.532 | 1.88 | -0.501 | -0.148 | 0.182 | 1.87 | 1.08 | -2.12 | 0.127 | 0.281 |
| UGAGGUAGUAGUUUGUGCUGU | 0.294 | -4.28 | 0.144 | 1.26 | 1.1 | -3.97 | -3 | 0.99 | -0.444 | 0.213 | -1.23 | 0.903 | 0.534 | 0.496 |
| UUAAUGCUAAUCGUGAUAGGGG | -0.67 | 1.21 | 0.373 | 0.347 | -1.61 | -0.313 | 0.891 | -0.119 | 0.178 | -0.0755 | 0.553 | -0.667 | 0.0933 | -0.523 |
| UGGUAGACUAUGGAACGUA | -0.722 | -0.991 | 0.552 | -0.461 | 0.96 | 0.966 | -0.304 | 0.0286 | 0.639 | -0.619 | -0.373 | 1.85 | -0.283 | 0.356 |
| UCACAGUGAACCGGUCUCUUUC | 0.111 | 0.78 | -1.67 | -0.688 | -1.23 | 0.302 | 0.45 | 0.655 | -0.749 | -3.58 | 0.244 | -0.537 | 0.241 | -2.39 |
| UAAGUGCUUCCAUGUUUUGGUGA | -0.208 | -0.457 | 0.567 | -0.478 | -1.01 | 0.317 | -0.0521 | -1.44 | 1.18 | 0.733 | 0.453 | 1.03 | -0.0784 | 1.55 |
| UCAAGAGCAAUAACGAAAAAUGU | 0.701 | -0.0128 | 0.698 | -0.0915 | -0.127 | -0.782 | -0.189 | -2.38 | 0.351 | 0.162 | -0.662 | -2.16 | 0.338 | 0.703 |
| GAGCUUAUUCAUAAAAGUGCAG | 0.117 | 0.564 | -1.75 | 0.562 | 0.663 | 0.314 | 1.07 | -2.82 | -0.458 | -0.038 | -0.299 | 2.05 | -1.36 | -1.29 |
| UGUGCAAAUCUAUGCAAAACUGA | -0.799 | -0.0175 | 0.679 | -1.18 | -0.797 | -2.74 | -0.0223 | 0.342 | -0.179 | 0.299 | 0.393 | 0.548 | 0.088 | -1.34 |
| UUGCAUAGUCACAAAAGUGA | -0.381 | 0.179 | 1.37 | -0.0974 | -1.85 | 0.143 | 0.279 | -0.0799 | 0.184 | -0.0278 | 0.0715 | -0.308 | 0.904 | -2.2 |
| AUUCAUUUGGUAUAAACCGCGAU | -0.573 | -0.0582 | -1.6 | 0.347 | -0.684 | 0.523 | 0.404 | -0.154 | 0.53 | 0.306 | -0.197 | 0.747 | -1.06 | 0.368 |
| CAGUGCAAUGUUAAAAGGGCAU | -0.00105 | -0.606 | 0.774 | -0.0408 | -1.89 | 1.42 | 0.265 | -0.334 | 0.727 | 0.0914 | 0.897 | 1.55 | -0.31 | -0.231 |

| Sequence | 3' UTR reporter interaction score [1] | 3' UTR reporter interaction score [2] | 3' UTR reporter interaction score [3] | 3' UTR reporter interaction score [4] | 3' UTR reporter interaction score [5] | 3' UTR reporter interaction score [6] | 3' UTR reporter interaction score [7] | 3' UTR reporter interaction score [8] | 3' UTR reporter interaction score [9] | 3' UTR reporter interaction score [10] | 3' UTR reporter interaction score [11] | 3' UTR reporter interaction score [12] | 3' UTR reporter interaction score [13] | 3' UTR reporter interaction score [14] |
| --- | --- | --- | --- | --- | --- | --- | --- | --- | --- | --- | --- | --- | --- | --- |
| UUGCAUAUGUAGGAUGUCCCAU | 0.216 | 0.731 | 1.23 | 0.995 | -1.75 | -0.178 | 0.476 | -1.22 | 0.153 | -1.76 | -1.16 | -0.812 | 0.961 | -4.28 |
| UUACAGUUGUUCAACCAGUUACU | 1.74 | 0.156 | -1.36 | 0.218 | -0.553 | -1.85 | 0.385 | 0.162 | -0.374 | 1.47 | -0.835 | -3.47 | 0.131 | -1.76 |
| UACUGCAUCAGGAACUGAUUGGAU | -0.471 | -1.49 | 0.0205 | 0.0273 | -0.822 | 0.685 | 0.358 | 1.06 | 0.0506 | -2.18 | 0.00207 | 1.24 | -0.963 | -0.414 |
| UCGUGUCUUGUGUUGCAGCCG | -0.341 | 0.0252 | -0.364 | -0.272 | 0.669 | 0.852 | -0.116 | -0.0239 | -0.0902 | -0.112 | -0.401 | -0.468 | -0.142 | 0.403 |
| AGGGGGAAAGUUCUAUAGUCCU | -1.55 | -1.49 | 0.691 | 0.225 | 1.55 | 0.426 | -1.56 | -0.154 | -1.57 | 1.82 | 1.33 | 0.755 | -0.601 | 2.84 |
| UACCCUGUAGAUCCGAAUUUGUG | 0.0748 | 1.17 | -0.445 | 1.04 | 0.0301 | -0.296 | 0.449 | -2.08 | -2.62 | -0.356 | -1.36 | 0.397 | -0.88 | -1.18 |
| CUAAUAGUAUCUACCACAAUAAA | 0.274 | 0.167 | 0.465 | -0.78 | 1.16 | 0.604 | -0.306 | -0.606 | 0.264 | -0.303 | 0.231 | -0.459 | -0.375 | 0.675 |
| UAUGGCUUUUCAUUCCUAUGUG | -1.68 | 0.203 | 0.501 | -0.329 | -0.208 | 0.938 | -0.427 | 0.255 | 0.259 | -0.00424 | 0.949 | -1.89 | 0.354 | 0.267 |
| ACCAUCGACCGUUGAUUGUACC | 0.723 | 0.789 | -0.0205 | -0.526 | 0.0907 | 0.598 | -0.128 | -2.64 | -0.491 | 1.81 | 0.0128 | -0.388 | 0.659 | 0.294 |
| UCUACAGUGCACGUGUCU | -0.808 | -0.132 | -0.208 | -0.193 | 0.507 | 0.872 | -0.224 | 0.894 | -0.268 | -1.18 | 1.13 | 0.634 | 0.119 | 0 |
| UGAGGUAGUAGUUUGUACAGU | 0.445 | -4.15 | -0.143 | 1.06 | 0.441 | -3.87 | -2.59 | 0.517 | 0.637 | -0.221 | 0.114 | 0.426 | 0.627 | -1.5 |
| CUGGCCCUCUCUGCCCUUCCGU | 0.17 | 0.421 | -0.17 | 1.31 | 0.857 | 1.01 | 1.14 | 0.19 | -0.752 | -2.64 | -0.839 | -0.329 | -0.27 | 0.72 |
| AAGGAGCUCACAGUCUAUUGAG | -1.14 | -0.897 | 0.924 | 0.291 | 1.45 | 1.38 | -0.238 | 0.551 | -1.13 | -0.478 | 0.65 | 0.838 | -1.32 | 1.75 |
| AGUGUGGCUUUCUUAGAGC | -3.13 | -0.421 | 1.11 | 0.377 | 0.805 | 0.47 | -0.501 | -0.23 | -0.152 | -0.715 | 1.11 | -0.335 | -0.0434 | 0.748 |
| CAACCUGGAGGACUCCAUGCUG | 0.635 | 0.157 | 0.0371 | 0.685 | 1.15 | 0.831 | 0.486 | 0.329 | -0.127 | -0.934 | -0.796 | -2.92 | 0.0572 | 0.335 |
| UGAGCUGCUGUACCAAAAU | -0.363 | -0.391 | 0.267 | -0.0544 | -0.26 | -1.43 | -0.354 | 0.273 | 0.526 | 0.476 | 1.09 | 0.104 | -0.00622 | 0.288 |
| AUCAUAGAGGAAAAUCCAUGUU | -0.0049 | 0.791 | -0.575 | -0.664 | 0.366 | 0.0452 | -0.229 | -0.0506 | 1.28 | -0.0407 | 0.462 | 0.00936 | 0.636 | -1.1 |
